# Source: PMC5918173, “Characterization of Transglutaminase 2 activity inhibitors in monocytes in vitro and their effect in a mouse model for multiple sclerosis” (PLoS ONE, 2018)
# How the values were obtained:
# [1] = tested on: fibronectin assembly; design: method as in PMID 26133787, PMID 17099729; conditions: cited from earlier work
# [2] = target: T1, TG2-fibronectin (FN42) interaction (Homo sapiens, UniProt P21980); experiment: TG2 interaction with fibronectin (FN42) ELISA; format: binding; conditions: 5 and 15 μM, with or without 1 mM CaCl2, Fig 2E, 2F
# T1 construct: purchased Zedira
# T1 sequence (P21980 1-687): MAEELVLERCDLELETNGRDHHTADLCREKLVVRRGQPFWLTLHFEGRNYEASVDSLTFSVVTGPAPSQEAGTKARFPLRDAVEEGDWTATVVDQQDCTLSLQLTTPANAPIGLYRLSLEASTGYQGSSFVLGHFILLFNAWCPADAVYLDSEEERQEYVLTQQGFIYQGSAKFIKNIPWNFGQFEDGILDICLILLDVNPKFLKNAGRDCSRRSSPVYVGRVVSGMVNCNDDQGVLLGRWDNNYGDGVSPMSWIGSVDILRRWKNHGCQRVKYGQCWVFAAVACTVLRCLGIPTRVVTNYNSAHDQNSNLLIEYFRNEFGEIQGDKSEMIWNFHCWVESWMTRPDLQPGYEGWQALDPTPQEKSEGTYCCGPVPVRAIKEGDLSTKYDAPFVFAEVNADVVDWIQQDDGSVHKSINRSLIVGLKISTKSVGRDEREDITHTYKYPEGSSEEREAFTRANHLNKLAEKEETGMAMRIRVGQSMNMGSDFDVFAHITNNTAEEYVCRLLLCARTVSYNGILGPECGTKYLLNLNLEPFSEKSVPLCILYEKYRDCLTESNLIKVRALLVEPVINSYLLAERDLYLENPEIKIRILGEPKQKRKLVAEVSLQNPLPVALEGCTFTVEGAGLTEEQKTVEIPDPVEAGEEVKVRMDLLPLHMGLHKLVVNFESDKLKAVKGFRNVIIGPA
# Description: To determine the potential effect of BJJF078 and ERW1041E on the interaction of TG2 with fibronectin, ELISA experiments were performed as described previously. Briefly, 96 well ELISA plates (Nunc, Maxisorp) were coated with 100 μg/ml mouse anti his-tag monoclonal antibody (Roche) in PBS at 4°C overnight. This was followed by simultaneous washing and blocking with 0.5% BSA in PBS (3x 10 min). Per well 50 μl of a 10 nM human recombinant TG2 (his-tagged, Zedira) solution in PBS was added. Into each well (triplicates) either DMSO (control, 1% final concentration) or TG2 inhibitors (BJJF078, ERW1041E, final concentration 5 and 15 μM in 1% DMSO) were added. As a positive control similar concentrations of TG53, a small molecule that inhibits the interaction between TG2 and fibronectin was added (kindly provided by Prof D. Matei, Northwestern University, Chicago, USA). […] After 1 h incubation at RT, 50 μl of 10 nM FN42-biotin solution (kindly provided by Prof D. Matei) was added to the wells. After an additional 1 h incubation at RT and washing steps (3x 10 min) with 0.5% BSA in PBS, 100 μl streptavidin-HRPO conjugate (from kit opr001, Covalab) was added and incubated for 1 h at RT. This was followed by another series of washes and the colour reaction started with 100 μl of 3,3′,5,5′ tetramethylbenzidine substrate (TMB, from kit opr001, Covalab). After sufficient colour development (15 min), the reaction was stopped with 1M HCl and absorbance was measured at 450 nm.
effect on binding of TG2 to fibronectin (FN42) [2],Structure (SMILES),effect on fibronectin assembly [1]
,O=C(N[C@@H](Cc1ccc(O)cc1)C(=O)NCC1CC(Br)=NO1)OCc1ccccc1 (some centres unmarked) [KCC009],can interfere with fibronectin assembly
dose-dependent reduction,COc1ccc(Cl)cc1C(=O)Nc1ccc(Nc2nc(C)cc(N(C)C)n2)cc1 [TG53],
